Measured values: publication PMC13607727 (International Journal of Molecular Sciences, 2026)
“And” between values parts separate entries of the source, which are not always exact repeats. Equal values may be shown once. Where a name gives a salt, the structure may show the parent alone. Read-outs that look alike come from different tables or passages of the source.

Legend:
[1] = molecular target: 2019-nCoV S protein (Severe acute respiratory syndrome coronavirus 2, UniProt P0DTC2); type: binding, SARS-CoV-2; details: for ΔTm: 100 µM
[2] = molecular target: 2019-nCoV S-RBD (Severe acute respiratory syndrome coronavirus 2, UniProt P0DTC2); type: binding, SARS-CoV-2
[3] = tested on: HEK293T cells; type: cell-based
[4] = molecular target: 2019-nCoV S protein–hACE2 complex (Severe acute respiratory syndrome coronavirus 2, UniProt P0DTC2); type: cell-based, SARS-CoV-2; human
[5] = tested on: 2019-nCoV pseudovirus; type: cell-based, SARS-CoV-2
[6] = tested on: Delta (B.1.617.2) pseudovirus; type: cell-based, SARS-CoV-2
[7] = tested on: Omicron BA.5 pseudovirus; type: cell-based, SARS-CoV-2
[8] = read-out: KD (equilibrium dissociation constant)
[9] = read-out: IC50 (concentration inducing 50% cell death)

ΔTm [1]	Kd [2, 8] [µM]	Tm [1] [°C]	Compound	CETSA classification [1]	Fold-change ratio of soluble S-protein band intensity relative to controls [1]	Kd ([2]; read-out: KD)	Kd ([2]; read-out: Mean KD ± SD) [µM]	Cell viability [3]	CC50 ([3]; read-out: Cytotoxicity CC50) [µM]	Reduction in S-protein pull-downs [4] [%]	Reduction in hACE2 pull-downs [4] [%]	Effect on pseudovirus entry [5]	IC50 [5] [µM]	Effect on pseudovirus entry [6]	IC50 [6] [µM]	Effect on pseudovirus entry [7]	IC50 [7] [µM]	further results
−6.1 °C	11.4	43.4	Bacitracin zinc [BZ]							61.8	95.7							CC50 [3, 9]: 79.9 µM
−0.7 °C		48.9	DDAVP															
+5.8 °C	30.7	55.4	angiotensin II [Ang II]					above 90%										Effect on S-RBD/hACE2 co-immunoprecipitation [4]: did not appreciably reduce
+0.7 °C	35		melittin	did not meet the positive threshold	2.70 ± 0.52	57 µM and 34.1 µM and 56.8 µM	49.6 ± 12.2		2.3	85.1	65.8	reduced entry of all three pseudoviruses at 1.25 μM	1.83	reduced entry of all three pseudoviruses at 1.25 μM	1.99	reduced entry of all three pseudoviruses at 1.25 μM	> 1.25	CC50 [3, 9]: 2.3 µM; Selectivity Index (SI) [5]: 1.26; Therapeutic index (SI) [5]: ~ 1.2; Selectivity Index (SI) [6]: 1.16; Selectivity Index (SI) [7]: < 1.84

Compound	ΔTm [1]	Kd [2, 8] [µM]	Tm [1] [°C]	CETSA classification [1]	Fold-change ratio of soluble S-protein band intensity relative to controls [1]	Kd ([2]; read-out: KD)	Kd ([2]; read-out: Mean KD ± SD) [µM]	Cell viability [3]	CC50 ([3]; read-out: Cytotoxicity CC50) [µM]	Reduction in S-protein pull-downs [4] [%]	Reduction in hACE2 pull-downs [4] [%]	Effect on pseudovirus entry [5]	IC50 [5] [µM]	Effect on pseudovirus entry [6]	IC50 [6] [µM]	Effect on pseudovirus entry [7]	IC50 [7] [µM]	further results
CC(OC(=O)OC1CCCCC1)OC(=O)C1=C(CSc2nnnn2CC[NH+](C)C)CSC2C(NC(=O)Cc3csc(N)n3)C(=O)N12 (centres unmarked) [CTM-HCl, cefotiam hexetil hydrochloride]	+2.2 °C	142		CETSA-positive	1.64 ± 0.21	142 µM	142	above 90%	> 100	32.5	7.9	reduced entry of the ancestral and Omicron strains in a concentration-dependent manner	94.6	marginal and detectable only at 50 μM	> 100	reduced entry of the ancestral and Omicron strains in a concentration-dependent manner	> 100	Selectivity Index (SI) [5]: > 1.06
CCCCCCCCC=CCCCCCCCC(=O)OCC(C[N+](C)(C)C)OC(=O)CCCCCCCC=CCCCCCCCC (centres unmarked) [DOTAP, DOTAP chloride]	+9.1 °C	49.9		CETSA-positive	3.49 ± 0.50	79 µM	64.5 ± 20.6	above 90%		51.4	46.8	at 25 μM reduced the entry of 2019-nCoV and Omicron pseudoviruses	> 100	limited efficacy against the Delta variant	> 100	at 25 μM reduced the entry of 2019-nCoV and Omicron pseudoviruses	> 100	
CC(=O)NC1C(OC2c3ccc(c(Cl)c3)Oc3cc4cc(c3OC3OC(CO)C(O)C(O)C3NC(=O)CCCCCCC(C)C)Oc3ccc(cc3Cl)CC3NC(=O)C(N)c5ccc(O)c(c5)Oc5cc(O)cc(c5)C(NC3=O)C(=O)NC4C(=O)NC3C(=O)NC2C(=O)NC(C(=O)O)c2cc(O)cc(OC4OC(CO)C(O)C(O)C4O)c2-c2cc3ccc2O)OC(CO)C(O)C1O (centres unmarked) [teicoplanin]	−4.0 °C			did not meet the positive threshold				above 90%	> 100	52.2	54.4	effective against the ancestral strain at 25–50 μM	> 100	observed only at 100 μM	> 100	reduced Omicron pseudovirus entry in a concentration-dependent manner	> 100	
